# Counter-ions that a name gives are not always drawn. Like-named read-outs stand apart in the source and are kept apart here.
# How the values were obtained:
# [1] = Cytotoxicity in H9c2 cells (CCK-8); assay type: cell-based; conditions: rat, H9c2 cells; H9c2 cell line
# In short: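 H9c2 cells were grown in DMEM with 10% FBS, seeded the day before, and exposed to a range of di-amidine concentrations for 24 h at 37 °C, 5% CO2. Viability was read by CCK-8 after 3 h at 37 °C as absorbance at 450 nm.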
# [2] = tested on: E. coli (ATCC 25922); test: MIC determination, sensitization fold and FIC index on E. coli; assay type: cell-based; conditions: for MIC: Escherichia coli; for MIC of AB with MD-124: MD-124 concentration 5 μg/ml
# In short: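 E. coli in cation-adjusted Mueller Hinton II, 5×10^5 CFU/ml, 24 h at 37 °C shaking; rifampicin two-fold serial dilutions with or without fixed sensitizer (10 μM).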
# [3] = tested on: B. subtilis; test: MIC determination and sensitization fold on B. subtilis; assay type: cell-based; conditions: for sensitization fold with 5.5 μg/ml DB2560: B. subtilis towards the antibiotic
# [4] = tested on: MRSA (ATCC 33592); test: MIC determination and sensitization fold on MRSA; assay type: cell-based, methicillin-resistant Staphylococcus aureus; conditions: for sensitization fold with 2.7 μg/ml DB2560: MRSA towards the antibiotic
# [5] = tested on: M. smegmatis; test: MIC on mycobacteria; assay type: cell-based, Mycobacterium smegmatis; conditions: Mycolicibacterium smegmatis, read-out: MIC on mycobacteria
# [6] = Cytotoxicity on mammalian cells (CCK-8), HEK293; assay type: cell-based; conditions: human, HEK293 cells; HEK293 cell line; 24 h
# In short: (§1)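 Cells seeded a day ahead to ~80% confluency, exposed to varied compound concentrations for 24 h at 37° C, 5% CO2. CCK-8 added for a further 2 h and OD 450 nm read; viability expressed as percent of untreated control.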
# [7] = tested on: HEK293 cells; test: Cytotoxicity on mammalian cells (CCK-8), HEK293; assay type: cell-based; conditions: Homo sapiens, HEK293
# In short: as §1
# [8] = Cytotoxicity on mammalian cells (CCK-8), NIH3T3; assay type: cell-based; conditions: mouse, NIH3T3 cells, 3T3 cell line
# In short: as §1
# [9] = tested on: MRSA and E. coli; test: Composition of mixed MRSA and E. coli under antibiotic pressure; assay type: cell-based
# Procedure: (§2) FIG. 11 contains graphs showing that MD-108 can change the composition between MRSA and E. coli (Panel A) or MRSA and B. subtilis (Panel B) when the bacteria strains are under the same antibiotic pressure.
# (§3) As a proof of concept, the relative ratio of E. coli and MRSA or B. subtilis and MRSA was measured with and without MD-108 (FIGS. 11A and B). […] When supplied with 1.5 μg/ml MD-108 and 8 ng/ml trovafloxacin, the MRSA inhibition was achieved, leaving E. coli as the dominant species (89% of the bacteria population).
# [10] = tested on: MRSA and B. subtilis; test: Composition of mixed MRSA and B. subtilis under antibiotic pressure; assay type: cell-based; conditions: 8 ng/ml trovafloxacin and 1.5 μg/ml MD-108
# Procedure: as §2, §3
# [11] = tested on: A. baumannii; test: MIC of rifampicin on A. baumannii with bacterial sensitizer Compound D; assay type: cell-based; conditions: Acinetobacter baumannii; antibiotic alone; read-out: minimum inhibitory concentration (MIC) on A. baumannii
# Procedure: Bacteria were cultured with the antibiotic at various concentrations in the presence or absence of bacterial sensitizer, Compound D, for 24 hours at 37° C.
# [12] = tested on: A. baumannii (ATCC 17978); test: MIC, sensitization fold and FIC index on A. baumannii; assay type: cell-based; conditions: for Sensitization fold with 5 μg/ml MD-124: A. baumannii towards the antibiotic
# [13] = tested on: K. pneumoniae (43816); test: MIC, sensitization fold and FIC index on K. pneumoniae; assay type: cell-based
# [14] = tested on: NDM-1 expressing E. coli strain; test: microbe, parasite or virus in culture; assay type: cell-based; conditions: for Sensitization fold with 5 μg/ml MD-124: NDM-1 expressing E. coli towards the antibiotic
# [15] = tested on: mcr-1 over-expressing E. coli strains; test: microbe, parasite or virus in culture; assay type: cell-based; conditions: for MIC: Escherichia coli; for Sensitization fold with 5 μg/ml MD-124: mcr-1 over-expression E. coli strain towards the antibiotic
# [16] = tested on: E. coli; test: Lysozyme assay (outer membrane disruption); assay type: cell-based; conditions: 50 μg/ml lysozyme, 25 μg/ml sensitizer, 10 min
# Procedure: Lysozyme assay to evaluate the disruption of Gram-negative bacteria out membrane by bacterial sensitizers. Lysozyme assay was performed based on literature reported method. E. coli was cultured in Mueller Hinton II cation-adjusted broth for overnight, centrifuged at 3000 g for 10 min, washed with HEPES buffer (pH=7.2) and then centrifuged again to obtain bacteria pallet. The pallet was then gently resuspended in HEPES buffer with 5 mM NaCN to obtain an E. coli suspension with OD600 between 0.8˜1.0. On a 96-well plate, each well was supplied with 100 μl lysozyme solution (100 μg/ml) containing 50 or 100 μg/ml bacterial sensitizers in HEPES buffer. To each well was added 100 μl E. coli suspension. The final concentration of lysozyme was 50 μg/ml. The plate was incubated at room temperature for 10 min and the OD600 was recorded. E. coli was also incubated with bacterial sensitizers in the absence of lysozyme to test if bacterial sensitizers would directly induce bacterial lysis. E. coli that was incubated with lysozyme alone or E. coli without any treatment were also used as negative control.
# [17] = tested on: E. coli expressing mcr-1; test: Ex vivo skin burn infection model, mcr-1 positive E. coli; conditions: human skin burn, hypromellose gel; 3‰ (w/w)
# Procedure: To achieve topical application, compounds were formulated as hypromellose gel. […] After that, skin was loaded with hypromellose gel with different antibiotics and cultured at 37° C. for 24 hours. After 24 hours incubation, the skin sample was homogenized and the supernatants were serially diluted and plated on agar plates, from which bacterial counts on the skin was calculated. […] 1‰ polymyxin B hypromellose gel was used as positive control.
# [18] = E. coli towards the antibiotic, MD-124 5 μg/ml
# [19] = mcr-1 over-expression E. coli strain (MIC of polymyxin B 30 μg/ml)
compound,measurement,setting,value
"Cc1cc(CCc2ccc(C(=N)N)cc2)cc(CCc2ccc(C(=N)N)cc2)c1 [MD-108, 4,4′-((5-methyl-1,3-phenylene)bis(ethane-2,1-diyl))dibenzimidamide dihydrochloride]",CC50 at 24 h,[1],12.5 µM
same,Sensitization fold,"[2]; 10 μM compound, rifampicin as the antibiotic (Table 6)",16 fold
same,Sensitization fold,"[2]; E. coli, rifampicin, compound at 10 μM",16-fold at 10 μM.
same,Sensitization fold,"[2]; E. coli, rifampicin, compound at 25 μM",32-fold at 25 μM;
same,MIC,"[2]; ATCC25922, 24 h",100 µM
same,Sensitization fold,"[3]; B. subtilis, erythromycin, compound at 6 μM",32-fold at 6 μM.
same,MIC,"[3]; Bacillus subtilis, 24 h, B. subtilis, compound alone, read-out: MIC",25 µM
same,Sensitization fold,"[4]; MRSA, rifampicin, compound at 3 μM",16-fold at 3 μM
same,MIC,[5],6 to 12 µM
same,CC50 at 24 h,[6],50 µM
same,IC50,[7],50 µM
same,CC50 at 24 h,[8],50 µM
same,E. coli share of the bacteria population,[9]; 1.5 μg/ml MD-108 and 8 ng/ml trovafloxacin,89%
same,B. subtilis share of the composition,[10],99.5%
CO[C@H]1/C=C/O[C@@]2(C)Oc3c(C)c(O)c4c(O)c(c(/C=N/N5CCN(C)CC5)c(O)c4c3C2=O)NC(=O)/C(C)=C\C=C\[C@H](C)[C@H](O)[C@@H](C)[C@@H](O)[C@@H](C)[C@H](OC(C)=O)[C@@H]1C [Rifampicin],MIC,[11],5 µg/mL
same,Sensitization fold,[2]; [18],516 fold
same,fractional inhibitory concentration (FIC) index between MD-124 and antibiotic,"[2]; E. coli, checkerboard assay",0.09
same,MIC,"[2]; ATCC25922, E. coli, with ~10 μg/ml MD-124, read-out: MIC of rifampicin (checkerboard assay)",0.0006 µg/mL
same,FIC index between DB2560 and antibiotic,[3]; B. subtilis,0.11
same,MIC of antibiotic in the presence of 5.5 μg/ml of DB2560,[3]; B. subtilis,0.037 µg/mL
same,sensitization fold with 5.5 μg/ml DB2560,[3],256 fold
same,sensitization fold with 2.7 μg/ml DB2560,[4],32 fold
same,Sensitization fold with 5 μg/ml MD-124,[12],128 fold
same,FIC index between MD-124 and antibiotic,"[12]; A. baumannii, checkerboard assay",0.14
same,MIC,"[12]; Acinetobacter baumannii, ATCC17978, A. baumannii, checkerboard assay, read-out: MIC of rifampicin with 7 pg/ml of the sensitizer (MD-124)",0.01 µg/mL
same,FIC index between MD-124 and antibiotic,[13]; K. pneumoniae,0.15
same,MIC of AB with 5 μg/ml MD-124,[13]; K. pneumoniae,0.016 µg/mL
same,Sensitization fold with 5 μg/ml MD-124,[13]; K. pneumoniae towards the antibiotic,252 fold
same,MIC,"[14]; Escherichia coli, read-out: MIC of rifampicin with 10 μg/ml MD-124, NDM-1 expressing E. coli",0.012 µg/mL
same,FIC index between MD-124 and antibiotic,[14]; NDM-1 expressing E. coli,0.09
same,Sensitization fold with 5 μg/ml MD-124,[14],516 fold
same,MIC,"[15]; mcr-1 over-expression E. coli strain (MIC of polymyxin B 30 μg/ml), read-out: MIC of AB only",5 µg/mL
same,MIC,"[15]; read-out: MIC of AB with 5 μg/ml MD-124, mcr-1 over-expression E. coli strain (MIC of polymyxin B 30 μg/ml)",≤ 0.2 µg/mL
same,MIC,"[15]; strain mcr-1 A, read-out: MIC of Rif only",5 µg/mL
same,MIC,"[15]; strain mcr-1 B, read-out: MIC of Rif only",5 µg/mL
same,FIC index between MD-124 and antibiotic,[15]; mcr-1 expressing E. coli,0.37
same,MIC of AB with 5 μg/ml MD-124,[15]; [19],0.16 µg/mL
same,Sensitization fold with 5 μg/ml MD-124,[15],32 fold
"N[C@@H]1[C@H]2CN(c3nc4c(cc3F)c(=O)c(C(=O)O)cn4-c3ccc(F)cc3F)C[C@@H]12 [Trovafloxacin, reference compound]",Sensitization fold,[2]; [18],32 fold
same,MIC of AB with MD-124,[2]; E. coli,0.0015 µg/mL
same,sensitization fold with 5.5 μg/ml DB2560,[3],8 fold
same,sensitization fold with 2.7 μg/ml DB2560,[4],16 fold
same,Sensitization fold with 5 μg/ml MD-124,[12],2 fold
same,Sensitization fold with 5 μg/ml MD-124,[14],32 fold
same,MRSA share of the bacteria population,[9]; trovafloxacin 16 ng/ml,78%
Polymyxin B,MIC of AB only,"[2]; E. coli (wild type), antibiotic alone",1.2 µg/mL
same,Sensitization fold,[2]; [18],32 fold
same,MIC of AB with MD-124,[2]; E. coli,0.04 µg/mL
same,MIC of AB with 5 μg/ml MD-124,[12]; A. baumannii,0.04 µg/mL
same,Sensitization fold with 5 μg/ml MD-124,[12],4 fold
same,MFC of AB only,"[12]; A. baumannii, antibiotic alone",1.6 µg/mL
same,MIC of AB with 5 μg/ml MD-124,[14]; NDM-1 expressing E. coli,0.32 µg/mL
same,Sensitization fold with 5 μg/ml MD-124,[14],8 fold
same,MFC of AB only,"[14]; NDM-1 expressing E. coli, antibiotic alone",2.5 µg/mL
same,MIC of AB with 5 μg/ml MD-124,[15]; [19],1 µg/mL
same,Sensitization fold with 5 μg/ml MD-124,[15],30 fold
same,MIC of Rif polymyxin B,[15]; strain mcr-1 A,10 µg/mL
same,MIC of Rif polymyxin B,[15]; strain mcr-1 B,30 µg/mL
same,bacterial lysis by lysozyme in the presence of sensitizer,[16],led to bacterial lysis
same,effect on bacterial load as compared with vehicle group,[17],only had minor effects

# Source: US20230105108A1, “COMPOUNDS FOR THE TREATMENT OF BACTERIAL INFECTIONS AND POTENTIATION OF ANTIBIOTICS” (GEORGIA STATE UNIVERSITY RESEARCH FOUNDATION, INC., priority 2019, published 2023)
